Key:
PCSK9 mRNA = assay: qRT-PCR of PCSK9 mRNA in primary hepatocytes; assay type: cell-based, human; conditions: donor 4178, 3 μM, relative to GUSB
COL1A1 mRNA = assay: qRT-PCR of COL1A1 mRNA in human primary hepatic stellate cells; assay type: cell-based; conditions: for Primary Stellate cells COL1A1 (fold change in mRNA expression): 3 μM, relative to GAPDH; for Relative COL1A1 mRNA levels RQ: GSK3 inhibitors in hepatic stellate cells; for COL1A1 expression (in words): hepatic stellate cells, serial dilutions, 18 hours
Method: Cells were plated at a density of 17000 cells/well in a 96-well plate and allowed to adhere overnight. The following day cell culture media was replenished with the indicated concentration(s) of compound for 18 hours. […] Medium was removed after 18 hours and cells were processed for further analysis, e.g. qRT-PCR.
Analysis of the fold changes in expression as measured by qRT-PCR were performed using the technique below. The control was DMSO, and the treatment was the selected compound (CPD). The internal control was GAPDH or B-Actin (or otherwise indicated), and the gene of interest is the target. First, the averages of the 4 conditions were calculated for normalization: DMSO:GAPDH, DMSO:Target, CPD: GAPDH, and CPD:Target. Next, the ΔCT of both control and treatment were calculated to normalize to internal control (GAPDH) using (DMSO:Target)−(DMSO:GAPDH)=ΔCT control and (CPD:Target)−(CPD: GAPDH)=ΔCT experimental. Then, the ΔΔCT was calculated by ΔCT experimental−ΔCT control.
Candidate compounds were tested in stellate cells for their ability to modulate PNPLA3 and COL1A1. Stellate cells were treated with serial dilutions of the compounds, ranging from 0.1 μM to 100 μM. Changes in PNPLA3 (or COL1A1) mRNA levels in stellate cells were analyzed with qRT-PCR.

PNPLA3 mRNA [1] = assay: qRT-PCR of PNPLA3 mRNA in human primary hepatic stellate cells; assay type: cell-based; conditions: for Primary Stellate cells PNPLA3 (fold change in mRNA expression): 3 μM, relative to GAPDH; for Relative PNPLA3 mRNA levels RQ: GSK3 inhibitors in hepatic stellate cells; for PNPLA3 mRNA levels (in words): hepatic stellate cells, serial dilutions, 18 hours
PNPLA3 mRNA [2] = assay: qRT-PCR of PNPLA3 mRNA in compound-treated primary human hepatocytes; conditions: for Primary Hepatocytes 4178 PNPLA3 (fold change in mRNA expression): donor 4178, 3 μM; for Primary Hepatocytes 4178 PNPLA3 (fold change in mRNA expression) / Primary Hepatocytes 4282 PNPLA3 (fold change in mRNA expression): relative to GUSB; for Primary Hepatocytes 4282 PNPLA3 (fold change in mRNA expression): donor 4282, 3 μM; for Relative PNPLA3 mRNA levels: human hepatocytes; for Relative PINPLA3 mRNA: hepatocytes
[3] = JAK inhibitors, 10 μM, qRT-PCR, mean of three replicates ± standard deviation

## C[C@H](Nc1ncnc2[nH]cnc12)c1cc2ccc(F)cc2nc1-c1ccccn1 [AMG319]
PCSK9 mRNA
  Primary Hepatocytes 4178 PCSK9 (fold change in mRNA expression): 0.74
COL1A1 mRNA
  Primary Stellate cells COL1A1 (fold change in mRNA expression): 0.99
PNPLA3 mRNA [1]
  Primary Stellate cells PNPLA3 (fold change in mRNA expression): 0.99
PNPLA3 mRNA [2]
  Primary Hepatocytes 4178 PNPLA3 (fold change in mRNA expression): 0.73
  Primary Hepatocytes 4282 PNPLA3 (fold change in mRNA expression): 0.85

## Cc1cc(Nc2nc(N[C@@H](C)c3ncc(F)cn3)ncc2Cl)[nH]n1 [AZD1480]
PNPLA3 mRNA [2]; [3]
  Relative PNPLA3 mRNA levels: 0.69 ± 0.10
PNPLA3 mRNA [2]; validation in human hepatocytes from a second donor, qRT-PCR
  PNPLA3 expression (in words): efficient downregulation of PNPLA3

## CNC(=O)c1cccc(-c2ccc3c(N4CCOC[C@@H]4C)nc(N4CCOC[C@@H]4C)nc3n2)c1 [AZD2014]
PCSK9 mRNA
  Primary Hepatocytes 4178 PCSK9 (fold change in mRNA expression): 0.36
COL1A1 mRNA
  Primary Stellate cells COL1A1 (fold change in mRNA expression): 0.55
PNPLA3 mRNA [1]
  Primary Stellate cells PNPLA3 (fold change in mRNA expression): 0.56
PNPLA3 mRNA [2]
  Primary Hepatocytes 4178 PNPLA3 (fold change in mRNA expression): 0.43
  Primary Hepatocytes 4282 PNPLA3 (fold change in mRNA expression): 0.80

## CN1CCN(S(=O)(=O)c2ccc(-c3cnc(N)c(C(=O)Nc4cccnc4)n3)cc2)CC1 [AZD2858]
COL1A1 mRNA; 1 μM
  Relative COL1A1 mRNA levels RQ: 0.83
COL1A1 mRNA; 10 μM
  Relative COL1A1 mRNA levels RQ: 0.72
COL1A1 mRNA
  COL1A1 expression (in words): modestly decreased both PNPLA3 and COL1A1 in a dose dependent manner
PNPLA3 mRNA [1]; 1 μM
  Relative PNPLA3 mRNA levels RQ: 0.48
PNPLA3 mRNA [1]; 10 μM
  Relative PNPLA3 mRNA levels RQ: 0.72
PNPLA3 mRNA [1]
  PNPLA3 mRNA levels (in words): modestly decreased both PNPLA3 and COL1A1 in a dose dependent manner

## Cc1cc([C@@H](C)Nc2ccccc2C(=O)O)c2nc(N3CCOCC3)cc(=O)n2c1 [AZD6482]
PCSK9 mRNA
  Primary Hepatocytes 4178 PCSK9 (fold change in mRNA expression): 0.56
COL1A1 mRNA
  Primary Stellate cells COL1A1 (fold change in mRNA expression): 1.20
PNPLA3 mRNA [1]
  Primary Stellate cells PNPLA3 (fold change in mRNA expression): 0.87

## C[C@@H](Nc1cc(F)cc(F)c1)c1cc(C(=O)N(C)C)cc2c(=O)cc(N3CCOCC3)oc12 [AZD8186]
PCSK9 mRNA
  Primary Hepatocytes 4178 PCSK9 (fold change in mRNA expression): 0.70
COL1A1 mRNA
  Primary Stellate cells COL1A1 (fold change in mRNA expression): 1.22
PNPLA3 mRNA [1]
  Primary Stellate cells PNPLA3 (fold change in mRNA expression): 0.86
PNPLA3 mRNA [2]
  Primary Hepatocytes 4178 PNPLA3 (fold change in mRNA expression): 0.80
  Primary Hepatocytes 4282 PNPLA3 (fold change in mRNA expression): 0.80

## C[C@H](Nc1ncnc2[nH]cnc12)c1nc2ccc(F)cc2c(=O)n1-c1ccccc1 [Acalisib]
PCSK9 mRNA
  Primary Hepatocytes 4178 PCSK9 (fold change in mRNA expression): 0.99
COL1A1 mRNA
  Primary Stellate cells COL1A1 (fold change in mRNA expression): 0.96
PNPLA3 mRNA [1]
  Primary Stellate cells PNPLA3 (fold change in mRNA expression): 0.91
PNPLA3 mRNA [2]
  Primary Hepatocytes 4178 PNPLA3 (fold change in mRNA expression): 1.00
  Primary Hepatocytes 4282 PNPLA3 (fold change in mRNA expression): 1.00

## CC[C@@H]1C(=O)N(C)c2cnc(Nc3ccc(C(=O)NC4CCN(C)CC4)cc3OC)nc2N1C1CCCC1 [BI 2536]
PNPLA3 mRNA [2]; 10 uM
  Relative PINPLA3 mRNA: 0.38

## O=C1Nc2cc(Br)ccc2/C1=C1/Nc2ccccc2/C1=N\O [BIO]
COL1A1 mRNA; 1 μM
  Relative COL1A1 mRNA levels RQ: 0.74
COL1A1 mRNA; 10 μM
  Relative COL1A1 mRNA levels RQ: 0.59
COL1A1 mRNA
  COL1A1 expression (in words): modestly decreased both PNPLA3 and COL1A1 in a dose dependent manner
PNPLA3 mRNA [1]; 1 μM
  Relative PNPLA3 mRNA levels RQ: 1.09
PNPLA3 mRNA [1]; 10 μM
  Relative PNPLA3 mRNA levels RQ: 0.54
PNPLA3 mRNA [1]
  PNPLA3 mRNA levels (in words): modestly decreased both PNPLA3 and COL1A1 in a dose dependent manner

## O=C(NCCCNc1nc(Nc2cccc(NC(=O)N3CCCC3)c2)ncc1I)c1cccs1 [BX795]
PNPLA3 mRNA [2]; TBK1 inhibitor, concentration not given
  Relative PNPLA3 mRNA levels: 0.51±0.06

## Nc1cc(C(F)(F)F)c(-c2cc(N3CCOCC3)nc(N3CCOCC3)n2)cn1 [Buparlisib (BKM120, NVP-BKM120)]
PNPLA3 mRNA [2]; 0.1 uM
  Relative PINPLA3 mRNA: 1.049
PNPLA3 mRNA [2]; 0.3 uM
  Relative PINPLA3 mRNA: 0.729
PNPLA3 mRNA [2]; 1 uM
  Relative PINPLA3 mRNA: 0.659
PNPLA3 mRNA [2]; 3 uM
  Relative PINPLA3 mRNA: 0.515

## CCS(=O)(=O)N1CCN(c2ccc(Nc3ncc(C(N)=O)c(NC4CC4)n3)cc2)CC1 [Cerdulatinib]
PNPLA3 mRNA [2]; [3]
  Relative PNPLA3 mRNA levels: 0.82 ± 0.00

## Cc1cnc(Nc2ccc(OCCN3CCCC3)cc2)nc1Nc1cccc(S(=O)(=O)NC(C)(C)C)c1 [Fedratinib (SAR302503, TG101348)]
PNPLA3 mRNA [2]; 10 uM
  Relative PINPLA3 mRNA: 0.25

## O=C(Nc1nc2cccc(-c3ccc(CN4CCS(=O)(=O)CC4)cc3)n2n1)C1CC1 [Filgotinib]
PNPLA3 mRNA [2]; [3]
  Relative PNPLA3 mRNA levels: 1.07 ± 0.14
PNPLA3 mRNA [2]; 1 uM
  Relative PINPLA3 mRNA: 0.781
PNPLA3 mRNA [2]; 10 uM
  Relative PINPLA3 mRNA: 0.365

## Cc1c(Cn2c(C)nc3c(C(=O)O)cc(N4CCOCC4)cc32)cccc1C(F)(F)F [GSK2636771]
PCSK9 mRNA
  Primary Hepatocytes 4178 PCSK9 (fold change in mRNA expression): 0.59
COL1A1 mRNA
  Primary Stellate cells COL1A1 (fold change in mRNA expression): 1.04
PNPLA3 mRNA [1]
  Primary Stellate cells PNPLA3 (fold change in mRNA expression): 1.06

## Cc1cc(Nc2cc(CN3CCOCC3)c3nc(C)c(Cc4ccc(Cl)cc4F)n3n2)n[nH]1 [Gandotinib]
PNPLA3 mRNA [2]; [3]
  Relative PNPLA3 mRNA levels: 0.76 ± 0.13

## Cl.NNc1nncc2ccccc12 [Hydralazine HCI]
PNPLA3 mRNA [2]; 10 uM
  Relative PINPLA3 mRNA: 0.25

## COc1cc2ncnc(Nc3ccc(O)cc3)c2cc1OC [JANEX-1]
PNPLA3 mRNA [2]; [3]
  Relative PNPLA3 mRNA levels: 0.78 ± 0.11

— US20220107328A1, “METHODS OF TREATING LIVER DISEASES” (Camp4 Therapeutics Corporation, priority 2018, published 2022)
